Test results published in patent US20250313559A1 (Bayer Aktiengesellschaft, priority 2024, published 2025).
Where two headings read alike, the source gives them in different places.

Key:
[1] = system: preclinical cardiorenal models; details: preclinical cardiorenal models which develop heart failure; cited from earlier work
[2] = cited from earlier work
[3] = system: patients with heart failure and a left ventricular ejection fraction ≥40%
[4] = No SGLT2i Use at baseline, n = 2,610
[5] = SGLT2i Use at baseline, n = 393

CCOc1ncc(C)c2c1[C@H](c1ccc(C#N)cc1OC)C(C(N)=O)=C(C)N2 [finerenone, (4S)-4-(4-cyano-2-methoxyphenyl)-5-ethoxy-2,8-dimethyl-1,4-dihydro-1,6-naphthyridine-3-carboxamide]
systolic and diastolic function [1]: improvement | tissue distribution between the heart and kidney ([2]; compared with steroidal mineralocorticoid receptor antagonists): more balanced | renal elimination ([2]; in vivo): less than 1% | Absolute risk reduction, primary outcome ([3]; HFimpEF (history of LVEF<40%)): 9.2 per 100 py | Absolute risk reduction, primary outcome ([3]; LVEF consistently 40% (no HFimpEF)): 2.5 per 100 py | All-cause death, HR (95% CI) finerenone vs placebo ([3]; No SGLT2i Use at baseline): 0.94 (0.82, 1.07) | Renal composite endpoint, HR (95% CI) finerenone vs placebo ([3]; No SGLT2i Use at baseline): 1.43 (0.98, 2.08) | Total worsening HF events, RR (95% CI) finerenone vs placebo ([3]; No SGLT2i Use at baseline): 0.83 (0.71, 0.97) | Renal composite endpoint, Rate (per 100 py) [3, 4]: 0.8 per 100 py | Total worsening HF events, Rate (per 100 py) [3, 4]: 13.0 per 100 py | All-cause death, HR (95% CI) finerenone vs placebo ([3]; SGLT2i Use at baseline): 0.90 (0.64, 1.27) | Renal composite endpoint, Rate (per 100 py) [3, 5]: 1.3 per 100 py | Total worsening HF events, Events [3, 5]: 194 | Total worsening HF events, Rate (per 100 py) [3, 5]: 22.0 per 100 py | Mean systolic blood pressure lower than in the placebo group ([3]; at 6 months): 3.4 mm Hg | All-cause death, event rate per 100 PY ([3]; bilirubin Tertile 2 0.5-0.6 mg/dL, finerenone N = 970): 6.4 per 100 PY | All-cause death, event rate per 100 PY ([3]; bilirubin Tertile 3 ≥0.7 mg/dL, finerenone N = 1,009): 6.6 per 100 PY | Hyperkalemia leading to Hospitalization - no. ([3]; both, human, in vivo): 24 | Number of subjects with a treatment-emergent SAE: Acute kidney injury ([3]; both, human, in vivo): 54 | Number of subjects with a treatment-emergent SAE: Anaemia ([3]; both, human, in vivo): 34 | Number of subjects with a treatment-emergent SAE: Angina pectoris ([3]; both, human, in vivo): 17 | Number of subjects with a treatment-emergent SAE: Angina unstable ([3]; both, human, in vivo): 38 | Number of subjects with a treatment-emergent SAE: Atrial fibrillation ([3]; both, human, in vivo): 77 | Number of subjects with a treatment-emergent SAE: Cardiac failure ([3]; both, human, in vivo): 18 | Number of subjects with a treatment-emergent SAE: Cellulitis ([3]; both, human, in vivo): 17 | Number of subjects with a treatment-emergent SAE: Chest pain ([3]; both, human, in vivo): 23 | Number of subjects with a treatment-emergent SAE: Chronic obstructive pulmonary disease ([3]; both, human, in vivo): 18 | Number of subjects with a treatment-emergent SAE: Fall ([3]; both, human, in vivo): 15 | Number of subjects with a treatment-emergent SAE: Femur fracture ([3]; both, human, in vivo): 15 | Number of subjects with a treatment-emergent SAE: Gastrointestinal haemorrhage ([3]; both, human, in vivo): 17 | Number of subjects with a treatment-emergent SAE: Hyperkalemia ([3]; both, human, in vivo): 19 | Number of subjects with a treatment-emergent SAE: Pneumonia ([3]; both, human, in vivo): 87 | Number of subjects with a treatment-emergent SAE: Syncope ([3]; both, human, in vivo): 25 | Number of subjects with treatment-emergent AE leading to treatment discontinuation: Asthenia ([3]; both, human, in vivo): 5 | Number of subjects with treatment-emergent AE leading to treatment discontinuation: Diarrhoea ([3]; both, human, in vivo): 4 | Number of subjects with treatment-emergent AE leading to treatment discontinuation: Dyspnoea ([3]; both, human, in vivo): 3 | Number of subjects with treatment-emergent AE leading to treatment discontinuation: Hyperkalaemia ([3]; both, human, in vivo): 12 | Number of subjects with treatment-emergent AE leading to treatment discontinuation: Hypotension ([3]; both, human, in vivo): 3 | Number of subjects with treatment-emergent AE leading to treatment discontinuation: Nausea ([3]; both, human, in vivo): 3 | Number of subjects with treatment-emergent AE leading to treatment discontinuation: Renal impairment ([3]; both, human, in vivo): 5 | Proportion of patients experiencing 15% decline in eGFR ([3]; both, human, in vivo): 20.6% | Subjects with a treatment-emergent SAE (%): Acute kidney injury ([3]; both, human, in vivo): 1.8% | Subjects with a treatment-emergent SAE (%): Anaemia ([3]; both, human, in vivo): 1.1% | Subjects with a treatment-emergent SAE (%): Angina pectoris ([3]; both, human, in vivo): 0.6% | Subjects with a treatment-emergent SAE (%): Angina unstable ([3]; both, human, in vivo): 1.3% | Subjects with a treatment-emergent SAE (%): Atrial fibrillation ([3]; both, human, in vivo): 2.6% | Subjects with a treatment-emergent SAE (%): Cardiac failure ([3]; both, human, in vivo): 0.6% | Subjects with a treatment-emergent SAE (%): Cellulitis ([3]; both, human, in vivo): 0.6% | Subjects with a treatment-emergent SAE (%): Chest pain ([3]; both, human, in vivo): 0.8% | Subjects with a treatment-emergent SAE (%): Chronic obstructive pulmonary disease ([3]; both, human, in vivo): 0.6% | Subjects with a treatment-emergent SAE (%): Coronary artery disease ([3]; both, human, in vivo): 0.7% | Subjects with a treatment-emergent SAE (%): Fall ([3]; both, human, in vivo): 0.5% | Subjects with a treatment-emergent SAE (%): Femur fracture ([3]; both, human, in vivo): 0.5% | Subjects with a treatment-emergent SAE (%): Gastrointestinal haemorrhage ([3]; both, human, in vivo): 0.6% | Subjects with a treatment-emergent SAE (%): Hyperkalemia ([3]; both, human, in vivo): 0.6% | Subjects with a treatment-emergent SAE (%): Pneumonia ([3]; both, human, in vivo): 2.9% | Subjects with a treatment-emergent SAE (%): Syncope ([3]; both, human, in vivo): 0.8% | Subjects with treatment-emergent AE leading to treatment discontinuation (%): Asthenia ([3]; both, human, in vivo): (0.2%) | Subjects with treatment-emergent AE leading to treatment discontinuation (%): Diarrhoea ([3]; both, human, in vivo): (0.1%) | Subjects with treatment-emergent AE leading to treatment discontinuation (%): Dyspnoea ([3]; both, human, in vivo): (0.1%) | Subjects with treatment-emergent AE leading to treatment discontinuation (%): Hyperkalaemia ([3]; both, human, in vivo): (0.4%) | Subjects with treatment-emergent AE leading to treatment discontinuation (%): Hypotension ([3]; both, human, in vivo): (0.1%) | Subjects with treatment-emergent AE leading to treatment discontinuation (%): Nausea ([3]; both, human, in vivo): (0.1%) | Subjects with treatment-emergent AE leading to treatment discontinuation (%): Renal impairment ([3]; both, human, in vivo): (0.2%) | Systolic blood pressure <100 mm Hg - no. ([3]; both, human, in vivo): 538 | Systolic BP, mean difference ([3]; by one month, compared with placebo): −2.8 mm Hg | Change in bilirubin during follow-up ([3]; early after randomization): sustained reduction in bilirubin | Change in KCCQ clinical summary score at 6, 9 and 12 mo (least squares mean change) ([3]; finerenone group): +8.0 ± 0.3 | Death from any cause - % ([3]; finerenone group): (16.4%) | First worsening heart failure event or death from cardiovascular causes - % ([3]; finerenone group): (20.8%) | Improvement in NYHA class from baseline to 12 mo - % ([3]; finerenone group): (18.6%) | Kidney composite outcome - % ([3]; finerenone group): (2.5%) | Death from cardiovascular causes - % ([3]; finerenone group N = 3,003): (8.1%) | Number of subjects with AE of death or leading to death: COVID-19 ([3]; n = 2,993): 7 | Number of subjects with AE of death or leading to death: COVID-19 pneumonia ([3]; n = 2,993): 9 | Number of subjects with AE of death or leading to death: Cardiac arrest ([3]; n = 2,993): 12 | Number of subjects with AE of death or leading to death: Cardiac failure ([3]; n = 2,993): 6 | Number of subjects with AE of death or leading to death: Death ([3]; n = 2,993): 70 | Number of subjects with AE of death or leading to death: Lung neoplasm malignant ([3]; n = 2,993): 7 | Number of subjects with AE of death or leading to death: Pneumonia ([3]; n = 2,993): 27 | Number of subjects with AE of death or leading to death: Respiratory failure ([3]; n = 2,993): 7 | Number of subjects with AE of death or leading to death: Sepsis ([3]; n = 2,993): 19 | Number of subjects with AE of death or leading to death: Septic shock ([3]; n = 2,993): 12 | Number of subjects with AE of death or leading to death: Sudden cardiac death ([3]; n = 2,993): 18 | Number of subjects with AE of death or leading to death: Sudden death ([3]; n = 2,993): 20 | Number of subjects with a treatment-emergent SAE: COVID-19 ([3]; n = 2,993): 69 | Number of subjects with a treatment-emergent SAE: COVID-19 pneumonia ([3]; n = 2,993): 28 | Number of subjects with a treatment-emergent SAE: Death ([3]; n = 2,993): 29 | Number of subjects with a treatment-emergent SAE: Sepsis ([3]; n = 2,993): 25 | Number of subjects with a treatment-emergent SAE: Sudden death ([3]; n = 2,993): 16 | Number of subjects with a treatment-emergent SAE: Urinary tract infection ([3]; n = 2,993): 29 | Subjects with AE of death or leading to death (%): COVID-19 ([3]; n = 2,993): (0.2%) | Subjects with AE of death or leading to death (%): COVID-19 pneumonia ([3]; n = 2,993): (0.3%) | Subjects with AE of death or leading to death (%): Cardiac arrest ([3]; n = 2,993): (0.4%) | Subjects with AE of death or leading to death (%): Cardiac failure ([3]; n = 2,993): (0.2%) | Subjects with AE of death or leading to death (%): Death ([3]; n = 2,993): (2.3%) | Subjects with AE of death or leading to death (%): Lung neoplasm malignant ([3]; n = 2,993): (0.2%) | Subjects with AE of death or leading to death (%): Pneumonia ([3]; n = 2,993): (0.9%) | Subjects with AE of death or leading to death (%): Respiratory failure ([3]; n = 2,993): (0.2%) | Subjects with AE of death or leading to death (%): Sepsis ([3]; n = 2,993): (0.6%) | Subjects with AE of death or leading to death (%): Septic shock ([3]; n = 2,993): (0.4%) | Subjects with AE of death or leading to death (%): Sudden cardiac death ([3]; n = 2,993): (0.6%) | Subjects with AE of death or leading to death (%): Sudden death ([3]; n = 2,993): (0.7%) | Subjects with a treatment-emergent SAE (%): COVID-19 ([3]; n = 2,993): 2.3% | Subjects with a treatment-emergent SAE (%): COVID-19 pneumonia ([3]; n = 2,993): 0.9% | Subjects with a treatment-emergent SAE (%): Death ([3]; n = 2,993): 1.0% | Subjects with a treatment-emergent SAE (%): Sepsis ([3]; n = 2,993): 0.8% | Subjects with a treatment-emergent SAE (%): Sudden death ([3]; n = 2,993): 0.5% | Subjects with a treatment-emergent SAE (%): Urinary tract infection ([3]; n = 2,993): 1.0% | Hyperkalemia leading to Death - % ([3]; through the end of study): (0%) | Hyperkalemia leading to Death - no. ([3]; through the end of study): 0 | Hyperkalemia leading to Death - % ([3]; treatment emergent): (0%) | Hyperkalemia leading to Death - no. ([3]; treatment emergent): 0
